# Columns and labels:
# HCC-422 = assay: Cell viability assay (CellTiter-Glo); assay type: cell-based; settings: Lung cancer; lacking FGFR alterations
# CHEK2 = CHEK2 (Homo sapiens, UniProt O96017); assay: Enzyme selectivity panel; assay type: biochemical; settings: 1 mM ATP
# Protocol: (§2) The kinase assays were carried out at room temperature in HEPES 50 mM, pH 7.0, NaN3 0.02%, BSA 0.01%, Orthovanadate 0.1 mM, DTT 1 mM, MgCl2 10 mM in a final volume of 10 µL. Test compounds were transferred to the plate wells by ECHO liquid handler (Labcyte, San Jose, CA) with 0.5% dimethyl sulfoxide (DMSO) in the final assay. Peptide/kinase mixtures were diluted in the appropriate enzymatic buffer and 5µL of the mixture was added to a 384-well small volume black plate. Reactions were initiated by the addition of 5 µL ATP in reaction buffer, the final reaction mixture consisted of 500 nM peptide substrate, 1 mM ATP, and appropriate amount of specific kinase. […] The plates were then sealed and centrifuged at 1800 rpm for 2 minutes. […] Half maximal inhibitory concentration (IC50) determination was performed by fitting the curve of percent control activity versus the log of the compound concentration using the GraphPad Prism 6.0 software.
# CYP2C19 = molecular target: T1, CYP2C19 (Homo sapiens, UniProt P33261); assay: CYP inhibition; assay type: in vitro ADME; settings: human liver microsomes
# T1 construct: from tissue; host or cells: human liver microsomes
# Protocol: (§1) In addition, the known selective inhibitors of CYP1A2 (α-naphthoflavone), CYP2B6 (ticlopidine), CYP2C8 (quercetin), CYP2C9 (sulfaphenazole), CYP2C19 (tranylcypromine), CYP2D6 (quinidine), and CYP3A4 (ketoconazole) were included as positive controls. […] Samples were vortexed and centrifuged, and the resulting supernatants were analyzed using LC-MS/MS.
# CYP2B6 = molecular target: T2, CYP2B6 (Homo sapiens, UniProt P20813); assay: CYP inhibition; assay type: in vitro ADME; settings: human liver microsomes
# T2 construct: from tissue; host or cells: human liver microsomes
# T2 sequence (P20813 whole entry): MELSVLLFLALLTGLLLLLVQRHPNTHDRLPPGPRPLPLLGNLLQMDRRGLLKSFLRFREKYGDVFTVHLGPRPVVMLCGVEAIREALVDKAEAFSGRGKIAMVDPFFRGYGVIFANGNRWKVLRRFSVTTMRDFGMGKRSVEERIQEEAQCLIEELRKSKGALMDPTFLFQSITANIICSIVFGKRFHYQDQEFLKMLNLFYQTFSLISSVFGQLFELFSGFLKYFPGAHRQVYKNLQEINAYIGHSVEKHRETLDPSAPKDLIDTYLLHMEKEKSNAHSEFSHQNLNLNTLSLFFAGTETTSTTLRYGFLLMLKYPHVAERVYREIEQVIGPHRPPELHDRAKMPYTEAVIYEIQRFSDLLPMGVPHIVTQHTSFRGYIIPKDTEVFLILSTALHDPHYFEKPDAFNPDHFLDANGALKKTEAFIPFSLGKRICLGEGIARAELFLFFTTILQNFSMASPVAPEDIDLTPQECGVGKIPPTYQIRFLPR
# Protocol: as §1
# CYP2C9 = molecular target: T3, CYP2C9 (Homo sapiens, UniProt P11712); assay: CYP inhibition; assay type: in vitro ADME; settings: human liver microsomes
# T3 construct: from tissue; host or cells: human liver microsomes
# Protocol: as §1
# CYP2D6 = molecular target: T4, CYP2D6 (Homo sapiens, UniProt P10635); assay: CYP inhibition; assay type: in vitro ADME; settings: human liver microsomes
# T4 construct: from tissue; host or cells: human liver microsomes
# T4 sequence (P10635 whole entry): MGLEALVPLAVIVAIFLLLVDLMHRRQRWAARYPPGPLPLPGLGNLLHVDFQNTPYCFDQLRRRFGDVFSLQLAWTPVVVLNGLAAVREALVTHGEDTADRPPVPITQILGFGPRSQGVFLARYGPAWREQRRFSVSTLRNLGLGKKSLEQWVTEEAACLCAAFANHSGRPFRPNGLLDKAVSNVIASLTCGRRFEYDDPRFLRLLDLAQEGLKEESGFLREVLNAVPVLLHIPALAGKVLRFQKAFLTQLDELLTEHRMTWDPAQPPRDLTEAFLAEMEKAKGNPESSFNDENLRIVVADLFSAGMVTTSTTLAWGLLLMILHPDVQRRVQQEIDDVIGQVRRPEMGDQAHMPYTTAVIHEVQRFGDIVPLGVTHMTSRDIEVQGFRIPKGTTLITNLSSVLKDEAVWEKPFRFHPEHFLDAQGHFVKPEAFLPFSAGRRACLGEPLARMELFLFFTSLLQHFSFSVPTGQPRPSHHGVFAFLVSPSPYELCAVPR
# Protocol: as §1
# CYP1A2 = molecular target: T5, CYP1A2 (Homo sapiens, UniProt P05177); assay: CYP inhibition; assay type: in vitro ADME; settings: human liver microsomes
# T5 construct: from tissue; host or cells: human liver microsomes
# T5 sequence (P05177 whole entry): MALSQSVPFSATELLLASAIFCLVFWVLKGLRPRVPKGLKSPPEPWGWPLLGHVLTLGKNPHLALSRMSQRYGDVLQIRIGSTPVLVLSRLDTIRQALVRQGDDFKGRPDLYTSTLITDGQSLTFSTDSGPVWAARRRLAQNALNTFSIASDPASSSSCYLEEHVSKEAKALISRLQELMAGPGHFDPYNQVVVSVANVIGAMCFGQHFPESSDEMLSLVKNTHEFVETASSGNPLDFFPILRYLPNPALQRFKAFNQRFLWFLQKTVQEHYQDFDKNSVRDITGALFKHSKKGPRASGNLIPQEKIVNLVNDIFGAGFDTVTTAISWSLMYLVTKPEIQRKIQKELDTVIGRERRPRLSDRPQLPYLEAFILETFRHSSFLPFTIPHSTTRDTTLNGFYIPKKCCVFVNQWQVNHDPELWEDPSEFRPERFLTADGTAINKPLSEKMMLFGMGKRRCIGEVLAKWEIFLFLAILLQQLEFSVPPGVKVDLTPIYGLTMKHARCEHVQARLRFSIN
# Protocol: as §1
# CYP2C8 = molecular target: T6, CYP2C8 (Homo sapiens, UniProt P10632); assay: CYP inhibition; assay type: in vitro ADME; settings: human liver microsomes
# T6 construct: from tissue; host or cells: human liver microsomes
# T6 sequence (P10632 whole entry): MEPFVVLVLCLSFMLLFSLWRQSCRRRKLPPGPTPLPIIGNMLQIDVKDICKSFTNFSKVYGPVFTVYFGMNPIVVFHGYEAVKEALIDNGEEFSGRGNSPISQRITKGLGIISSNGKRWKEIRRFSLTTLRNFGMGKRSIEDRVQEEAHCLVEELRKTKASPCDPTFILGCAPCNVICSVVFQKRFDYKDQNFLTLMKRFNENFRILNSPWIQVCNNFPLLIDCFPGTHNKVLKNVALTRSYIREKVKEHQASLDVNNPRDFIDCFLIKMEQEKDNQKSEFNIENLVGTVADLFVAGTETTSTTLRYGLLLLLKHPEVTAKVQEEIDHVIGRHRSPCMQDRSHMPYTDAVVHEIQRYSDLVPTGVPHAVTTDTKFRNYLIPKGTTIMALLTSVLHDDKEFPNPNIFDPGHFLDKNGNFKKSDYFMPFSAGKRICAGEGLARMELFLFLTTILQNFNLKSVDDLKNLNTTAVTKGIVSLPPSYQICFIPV
# Protocol: as §1
# CYP3A4 = molecular target: T7, CYP3A4 (Homo sapiens, UniProt P08684); assay: CYP inhibition; assay type: in vitro ADME; settings: human liver microsomes
# T7 construct: from tissue; host or cells: human liver microsomes
# T7 sequence (P08684 whole entry): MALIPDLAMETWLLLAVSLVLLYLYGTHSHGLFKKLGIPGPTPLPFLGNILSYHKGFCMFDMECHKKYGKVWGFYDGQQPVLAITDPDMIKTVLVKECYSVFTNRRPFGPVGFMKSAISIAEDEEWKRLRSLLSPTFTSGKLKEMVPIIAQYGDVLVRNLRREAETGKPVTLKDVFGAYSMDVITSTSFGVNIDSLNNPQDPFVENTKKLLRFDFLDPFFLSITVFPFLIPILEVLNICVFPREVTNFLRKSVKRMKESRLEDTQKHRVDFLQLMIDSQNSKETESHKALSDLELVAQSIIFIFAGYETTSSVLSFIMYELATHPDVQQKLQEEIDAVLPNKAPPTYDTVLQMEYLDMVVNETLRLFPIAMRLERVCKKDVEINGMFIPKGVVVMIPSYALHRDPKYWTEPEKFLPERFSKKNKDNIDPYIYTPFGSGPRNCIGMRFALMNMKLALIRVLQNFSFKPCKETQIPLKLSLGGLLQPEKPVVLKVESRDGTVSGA
# Protocol: as §1
# LCK = LCK (Homo sapiens, UniProt P06239); assay: Enzyme selectivity panel; assay type: biochemical; settings: 1 mM ATP
# LCK, sequence (P06239 whole entry, species assumed): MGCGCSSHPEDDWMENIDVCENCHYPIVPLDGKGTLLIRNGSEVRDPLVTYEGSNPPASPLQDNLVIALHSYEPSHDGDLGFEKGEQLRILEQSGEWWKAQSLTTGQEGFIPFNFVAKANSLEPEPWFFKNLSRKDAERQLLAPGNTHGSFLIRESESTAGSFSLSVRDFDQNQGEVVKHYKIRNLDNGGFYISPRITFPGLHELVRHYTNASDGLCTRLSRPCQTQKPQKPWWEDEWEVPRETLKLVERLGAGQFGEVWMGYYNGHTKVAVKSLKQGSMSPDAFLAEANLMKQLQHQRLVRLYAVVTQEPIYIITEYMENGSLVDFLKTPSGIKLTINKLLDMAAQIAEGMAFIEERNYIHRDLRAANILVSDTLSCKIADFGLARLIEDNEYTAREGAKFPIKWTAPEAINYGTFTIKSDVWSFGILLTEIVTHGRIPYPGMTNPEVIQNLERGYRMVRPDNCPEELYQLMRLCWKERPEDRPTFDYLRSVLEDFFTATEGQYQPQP
# Protocol: as §2
# GSK3B = molecular target: T8, GSK3B (Homo sapiens, UniProt P49841); assay: Enzyme selectivity panel; assay type: biochemical; settings: 1 mM ATP
# T8 construct: purchased In-house HTRF panel (56 kinases) and PerkinElmer (161-kinase panel)
# T8 sequence (P49841 whole entry, species assumed): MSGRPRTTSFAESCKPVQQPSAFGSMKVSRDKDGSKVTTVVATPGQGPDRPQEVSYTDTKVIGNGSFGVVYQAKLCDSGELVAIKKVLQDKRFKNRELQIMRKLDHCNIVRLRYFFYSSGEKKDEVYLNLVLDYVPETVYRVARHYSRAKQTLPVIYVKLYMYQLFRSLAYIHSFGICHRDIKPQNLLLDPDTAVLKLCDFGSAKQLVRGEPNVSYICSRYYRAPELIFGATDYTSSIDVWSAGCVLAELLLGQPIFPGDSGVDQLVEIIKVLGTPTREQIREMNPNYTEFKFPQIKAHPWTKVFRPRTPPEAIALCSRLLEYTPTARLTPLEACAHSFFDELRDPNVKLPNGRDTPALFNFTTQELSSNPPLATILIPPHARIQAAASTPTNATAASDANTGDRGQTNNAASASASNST
# Protocol: as §2
# NLK = NLK (Homo sapiens, UniProt Q9UBE8); assay: Enzyme selectivity panel; assay type: biochemical; settings: 1 mM ATP
# NLK, sequence (Q9UBE8 whole entry): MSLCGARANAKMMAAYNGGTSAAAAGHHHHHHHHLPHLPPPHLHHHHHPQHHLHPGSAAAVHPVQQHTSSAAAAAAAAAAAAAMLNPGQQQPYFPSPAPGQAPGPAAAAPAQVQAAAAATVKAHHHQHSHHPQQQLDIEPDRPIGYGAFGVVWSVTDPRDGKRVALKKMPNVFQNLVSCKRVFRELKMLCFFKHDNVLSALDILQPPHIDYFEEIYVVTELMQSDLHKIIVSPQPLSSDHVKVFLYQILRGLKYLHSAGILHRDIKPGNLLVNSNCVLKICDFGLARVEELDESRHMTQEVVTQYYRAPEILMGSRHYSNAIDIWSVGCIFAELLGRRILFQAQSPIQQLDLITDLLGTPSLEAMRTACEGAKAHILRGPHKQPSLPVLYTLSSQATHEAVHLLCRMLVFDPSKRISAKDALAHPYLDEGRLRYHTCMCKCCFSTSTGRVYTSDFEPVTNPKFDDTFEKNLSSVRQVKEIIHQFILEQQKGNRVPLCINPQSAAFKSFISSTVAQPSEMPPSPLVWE
# Protocol: as §2
# TF1-BCR-ABL = assay: Cell viability assay (CellTiter-Glo); assay type: cell-based; settings: AML/recombinant; lacking FGFR alterations
# [1] = Plasma exposure after single oral dose in KATO III tumor-bearing mice; assay type: in vivo, mouse; settings: single oral dose of 0.1, 1, and 10 mg/kg
# Protocol: (A) Pharmacokinetic profile of INCB054828 in the mouse. […] (B) Pharmacokinetic-pharmacodynamic analyses in KATO III tumors. […] Plasma was subjected to analytical analysis and phospho-FGFR2 in tumor homogenate was determined by ELISA.
# CHEK2, sequence (O96017 whole entry, species assumed): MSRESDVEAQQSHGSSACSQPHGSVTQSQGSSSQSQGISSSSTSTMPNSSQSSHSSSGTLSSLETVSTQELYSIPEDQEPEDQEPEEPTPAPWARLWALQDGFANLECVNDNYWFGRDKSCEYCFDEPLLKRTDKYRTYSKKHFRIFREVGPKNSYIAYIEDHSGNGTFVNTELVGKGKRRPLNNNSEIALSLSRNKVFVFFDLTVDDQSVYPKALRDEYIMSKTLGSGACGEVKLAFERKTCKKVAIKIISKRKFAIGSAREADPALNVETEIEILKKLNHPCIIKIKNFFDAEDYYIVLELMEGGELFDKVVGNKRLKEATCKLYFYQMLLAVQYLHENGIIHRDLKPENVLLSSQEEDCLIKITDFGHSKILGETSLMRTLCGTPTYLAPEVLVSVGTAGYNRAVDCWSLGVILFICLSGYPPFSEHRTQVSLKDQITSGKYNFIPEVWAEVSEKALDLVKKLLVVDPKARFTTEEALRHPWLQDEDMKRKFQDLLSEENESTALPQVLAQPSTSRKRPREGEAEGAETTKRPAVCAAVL
# T1 sequence (P33261 whole entry): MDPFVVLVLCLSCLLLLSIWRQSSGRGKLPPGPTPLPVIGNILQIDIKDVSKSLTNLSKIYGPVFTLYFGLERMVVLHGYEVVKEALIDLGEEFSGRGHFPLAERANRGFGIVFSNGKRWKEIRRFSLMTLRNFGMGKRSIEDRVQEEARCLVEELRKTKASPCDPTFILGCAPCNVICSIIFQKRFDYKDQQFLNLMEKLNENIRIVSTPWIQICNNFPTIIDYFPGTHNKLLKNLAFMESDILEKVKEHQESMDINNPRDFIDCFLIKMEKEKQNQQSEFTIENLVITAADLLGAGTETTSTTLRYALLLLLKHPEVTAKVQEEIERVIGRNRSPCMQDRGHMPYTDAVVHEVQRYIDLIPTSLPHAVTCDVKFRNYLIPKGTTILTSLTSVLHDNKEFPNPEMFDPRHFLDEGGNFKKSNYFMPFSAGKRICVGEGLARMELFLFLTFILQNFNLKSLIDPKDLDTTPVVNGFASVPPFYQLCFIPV
smiles,measurement,setting,value
"CCN1C(=O)N(c2c(F)c(OC)cc(OC)c2F)Cc2cnc3[nH]c(CN4CCOCC4)cc3c21 [INCB054828, pemigatinib]",GI50,HCC-422,> 5 µM
same,IC50,CHEK2,> 10 µM
same,IC50,CYP2C19,> 25 µM
same,IC50,CYP2B6,> 25 µM
same,IC50,CYP2C9,> 25 µM
same,IC50,CYP2D6,> 25 µM
same,IC50,CYP1A2,> 25 µM
same,IC50,CYP2C8,> 25 µM
same,IC50,CYP3A4,> 25 µM
same,IC50,LCK,> 10 µM
same,IC50,GSK3B,> 10 µM
same,IC50,NLK,> 10 µM
same,GI50,TF1-BCR-ABL,> 5 µM
same,"plasma exposures, dose dependence",[1],dose linear

# Source: paper PMC7313537 (PLoS ONE, 2020)
